Key:
[1] = tested on: RAW macrophages stably expressing wild type UNC93B-HA; assay: Endo H sensitivity of UNC93B-HA and Class I MHC in RAW macrophages; assay type: cell-based, mouse; details: Brefeldin A 10 μg/ml, present throughout pulse, chase and CpG stimulation
Experimental: FIG. 14. The interaction between UNC93B and TLRs maintains in dendritic cells stimulated with TLR agonists. (a) BM-DCs were metabolically labeled with ^35S-methionine/cysteine and stimulated with TLR ligands for 1 h (LPS: 1 μg/ml, poly (I:C): 50 μg/ml, Imiquimod: 2.5 CpG DNA: 2.5 μM). Endogenous UNC93B and TLRs were immunoprecipitated with an anti-UNC93B antibody, digested with endoglycosidase H (Endo H), subjected to 10% SDS-PAGE and visualized by fluorography. TLRs coimmunoprecipitated with UNC93B are denoted by open triangles. Interaction between TLRs and UNC93B was maintained even after TLR stimulation with various agonists. […] NRS; normal rabbit serum (b) RAW macrophages stably expressing wild type UNC93B-HA were exposed to Brefeldin A (10 μg/ml) for 2 h, metabolically labeled with ^35S-methionine/cysteine for 30 min (pulse), incubated in normal medium for 2 h (chase) followed by 2 h stimulation with CpG (+CpG) or were left unstimulated (−CpG). All incubations (pulse, chase, CpG stimulation) were done in the continuous presence of Brefeldin A. As a control, cells were not treated with Brefeldin A (−BA). Cells were lysed in RIPA buffer and UNC93B-HA and Class I MHC products were recovered from cell lysates by immunoprecipitation with an anti-HA (upper panel) or Class I antibody (lower panel), respectively. […]

TLR signaling = details: pretreatment of wild type cells; cited from earlier work
[2] = tested on: UNC93B/TLR interaction in A20 B cells; assay: Coimmunoprecipitation of TLRs with UNC93B-HA after stimulation with TLR agonists; assay type: cell-based, mouse; details: imiquimod 10 μM, gardiquimod 1 μM, CpG DNA 1 μM, 1 h
Experimental: Stimulation with TLR agonists. A20 B cells either not transduced or stably transduced with UNC93B-HA WT or H412R were metabolically labeled with ^35S-methionine/cysteine for 4 h (pulse). TLR agonists were added to the cells for the final hour of the pulse at the following concentrations: imiquimod: 10 μM, gardiquimod: 1 μM, CpG DNA: 1 μM.
Pulse-chase, immunoprecipitation and Endo H/F assay. In brief, cells were starved for methionine and cysteine in Met/Cys-free DMEM (starvation medium) for 30 min, pulsed for different time periods (see figure legends) with ^35S-labeled methionine/cysteine (Perkin Elmer) in starvation medium supplemented with dialyzed IFS, and chased with an excess of non-radioactive amino acids in regular DMEM for various time periods (see figure legends). Cells were lysed in either of the following lysis buffers supplemented with the complete protease inhibitors (Roche) as indicated in the figure legends: RIPA (20 mM Tris-HCl, pH 7.4, 1 mM EDTA, 100 mM NaCl, 1% Triton X-100, 0.5% sodium deoxycholate, 0.1% SDS), or buffer containing 50 mM Tris-HCl, pH 7.4, 150 mM NaCl, 5 mM EDTA with either 1% NP-40 or 1% digitonin as detergent. Lysates were equalized for incorporation of radioactive material with ^35S counts in the trichloroacetic acid precipitate and immunoprecipitated with the indicated antibodies. […]

BM-DCs [3] = assay: TNF production in BM-DCs stimulated with TLR agonists (intracellular TNF, flow cytometry); assay type: cell-based, mouse; details: BM-DCs from 3d (UNC93B H412R) mice; 100 nM imiquimod or 1 μM CpG, 4 h, with 10 μg/ml brefeldin A
Experimental: TNF assay. Five days old BM-DCs expressing either wild type or mutant UNC93B-GFP were stimulated with 1 μg/ml LPS, 100 nM imiquimod or 1 μM CpG for 4 hours in the presence of 10 μg/ml brefeldin A. The cells were fixed with 4% formaldehyde for 10 min at RT and permeabilized with 0.5% saponin in FACS buffer (PBS with 2% BSA and 0.05% sodium azide) for 10 min. After blocking with anti-CD16 antibody (clone 2.4G2) for 30 min, cells were stained with PE-conjugated anti-CD11c (clone HL3) and Alexa Fluor 647-conjugated anti-TNF (clone MP6-XT22) antibodies for 30 min. Fluorescence intensity was measured with LSR I flow cytometer (BD biosciences). Data were collected with CellQuest (BD biosciences) and analyzed with FlowJo (TriStar).

BM-DCs [4] = assay: Surface MHC class II level on BM-DCs by flow cytometry; assay type: cell-based, mouse; details: B6 or 3d BM-DCs; 1 μg/ml LPS, 1 μM CpG or 1 μM imiquimod, 16 h
Experimental: (b) BM-DCs from B6 and 3d mice were fixed, permeablized and stained for MHC class II (green) and Lamp1 (red). […] White dashed lines mark the cell boundary. […] (d) B6 or 3d BM-DCs were stimulated with 1 μg/ml LPS or 1 μM CpG for 16 h, fixed, permeabilized and stained for MHC class II and Lamp1. […] Scale bars; 10 μm

TLR7 = molecular target: T1, TLR7 (Mus musculus, UniProt P58681); assay: Live cell imaging of TLR7-YFP localization in BM-DCs; assay type: cell-based; details: wild type (B6) BM-DCs, 1 μM imiquimod, 2 h
T1 construct: expressed in transfected cells; host or cells: bone marrow-derived dendritic cells from B6 or 3d mice, retroviral transduction (pMXrmv5-TLR7-YFP)
T1 sequence (P58681 27-1050): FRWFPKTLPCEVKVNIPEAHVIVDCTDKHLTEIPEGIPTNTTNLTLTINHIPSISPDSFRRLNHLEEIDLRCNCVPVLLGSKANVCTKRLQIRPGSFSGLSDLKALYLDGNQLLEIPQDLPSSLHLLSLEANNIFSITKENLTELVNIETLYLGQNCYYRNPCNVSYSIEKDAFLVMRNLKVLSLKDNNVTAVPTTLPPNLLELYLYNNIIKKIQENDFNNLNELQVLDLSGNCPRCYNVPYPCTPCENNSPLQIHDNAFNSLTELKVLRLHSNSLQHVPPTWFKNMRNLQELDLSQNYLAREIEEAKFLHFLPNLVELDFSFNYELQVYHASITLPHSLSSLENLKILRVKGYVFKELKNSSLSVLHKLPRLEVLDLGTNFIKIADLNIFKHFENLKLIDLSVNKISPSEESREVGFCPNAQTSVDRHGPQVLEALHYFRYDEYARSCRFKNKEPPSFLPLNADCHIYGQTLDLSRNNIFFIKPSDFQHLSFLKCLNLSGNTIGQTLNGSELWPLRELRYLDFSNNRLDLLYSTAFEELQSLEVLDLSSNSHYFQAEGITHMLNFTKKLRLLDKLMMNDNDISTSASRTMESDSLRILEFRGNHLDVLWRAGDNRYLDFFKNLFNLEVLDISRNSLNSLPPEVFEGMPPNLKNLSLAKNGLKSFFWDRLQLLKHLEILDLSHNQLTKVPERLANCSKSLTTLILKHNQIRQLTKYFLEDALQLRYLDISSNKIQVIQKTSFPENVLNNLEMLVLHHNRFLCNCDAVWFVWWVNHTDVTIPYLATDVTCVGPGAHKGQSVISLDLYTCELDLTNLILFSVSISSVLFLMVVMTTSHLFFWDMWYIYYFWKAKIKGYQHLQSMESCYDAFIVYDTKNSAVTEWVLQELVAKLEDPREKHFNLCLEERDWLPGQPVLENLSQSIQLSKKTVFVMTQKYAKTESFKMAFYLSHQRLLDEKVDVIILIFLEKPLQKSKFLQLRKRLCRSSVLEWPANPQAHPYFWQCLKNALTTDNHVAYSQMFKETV
Experimental: Image acquisition and data analysis. For live cell imaging, cells were grown in 8 well-chambered coverglasses (LAB-TEK). During imaging, cells were maintained in phenol red-free DMEM supplemented with 25 mM Hepes (pH 7.4) at 37° C. with 5% supplemental CO2 in room air using a Solent scientific chamber. Images were acquired using a spinning disk confocal microscope equipped with a 3 watt water-cooled 5 line laser (Prairie Technologies), a Nikon TE2000-U inverted microscope, acousto-optic tunable filters (AOTF), a Yokagawa QLC-100 spinning disk confocal head, a Prior x,y stage controller, a Piezo z stage and Hamamatsu Orca ER and EM CCD cameras. All images were taken with a Nikon 100X 1.4NA DIC lens. Metamorph (Molecular Devices) was used for image acquisition and figures were constructed using Adobe Photoshop and Illustrator. Quantitative colocalization analyses were performed using applications ‘Measure Colocalization’ and ‘Correlation Plot’ in the MetaMorph software (Molecular Devices).

| SMILES | effect on TLR signaling compared with the defects of 3d cells (TLR signaling) | levels of coimmunoprecipitated TLR polypeptides after TLR activation versus unstimulated cells [2] | also measured |
| --- | --- | --- | --- |
| C[C@H]1CCC/C=C/[C@@H]2C[C@H](O)C[C@H]2[C@H](O)/C=C/C(=O)O1 [Brefeldin A] |  |  | Endo H resistance of Class I MHC and UNC93B [1]: both Class I MHC and UNC93B acquire partially EndoH resistant hybrid type oligosaccharides |
| CO/C1=C\C(C)=C\[C@@H](C)[C@@H](O)[C@@H](C)C/C(C)=C/C=C/[C@H](OC)[C@@H]([C@@H](C)[C@@H](O)[C@H](C)[C@@]2(O)C[C@@H](O)[C@H](C)[C@@H](C(C)C)O2)OC1=O [bafilomycin] | mimicked |  |  |
| CCN(CC)CCCC(C)Nc1ccnc2cc(Cl)ccc12 (centres unmarked) [chloroquine] | mimicked |  |  |
| CCNCc1nc2c(N)nc3ccccc3c2n1CC(C)(C)O [gardiquimod] |  | No significant changes |  |
| CC(C)Cn1cnc2c(N)nc3ccccc3c21 [imiquimod, Imiquimod] |  | No significant changes | TNF production (BM-DCs [3]): failed to produce TNF; surface level of MHC class II (BM-DCs [4]): failed to increase the MHC class II level in 3d cells; localization of TLR7 after stimulation (TLR7): trafficking of TLR7 from the ER to endolysosomes was also observed |
